Measurements reported in patent publication US7968526B2, “Antisense oligonucleotides directed to ribonucleotide reductase R2 and uses thereof in the treatment of cancer” (Lorus Therapeutics Inc., priority 2003, dated 2011).

Key:
[1] = system: glioblastoma-astrocytoma (U-87 MG); assay: Human glioblastoma-astrocytoma tumour growth in mice; format: in vivo, human cells in mice
Experimental: Unless noted otherwise in this Example human tumour cell lines were purchased from the American Type Culture Collections (ATCC) (Rockville, Md.). Human colon adenocarcinoma (HT-29), non-small cell lung carcinoma (NCI-H460), melanoma (A2058), breast adenocarcinoma (MDA-MB-231), pancreatic carcinoma (AsPC-1 and SU.86.86), glioblastoma-astrocytoma (U-87 MG), renal carcinoma (A498 and Caki-1), ovarian carcinoma (SK-OV-3), cervical carcinoma (HeLa S3), prostate carcinoma (PC-3), bladder carcinoma (T24), Burkitt's lymphoma (Raji) and hepatocellular carcinoma (Hep G2) were maintained, according to ATCC recommendation, in α-MEM, RPMI1640, or McCoy's 5a medium (Invitrogen Canada Inc. Burlington, Ontario) supplemented with 10-20% fetal calf serum (FCS) at 37° C. in a humidified atmosphere containing 5% CO2. Normal human cell lines, WI-38 (human lung fibroblast) and HUVEC (human umbilical vein endothelial cells) and murine R3 (fibrosarcoma) and L (Ltk^− fibroblast) cells were maintained as mentioned above. […]
FIG. 29 summarizes the results of a statistical analysis of data compiled from a number of experiments in which the effect of SEQ ID NO:1 on tumour growth was assessed in human tumour cell xenografts in mice. […]

[2] = Tissue distribution in the monkey (CE method); format: in vivo
Experimental: The toxicokinetics and tissue distribution of SEQ ID NO:1 (and related oligonucleotide metabolites obtained from exonuclease-mediated chain shortening) were determined in rats and monkeys. In addition to investigating the pharmacokinetics and tissue distribution of SEQ ID NO:1, the purpose of the studies was to correlate adverse effects in the animal studies to the concentrations of SEQ ID NO:1 (and metabolites) in tissue and blood. A capillary electrophoresis (CE) method was used to measure the concentrations of SEQ ID NO:1 (and metabolites) in plasma and tissues.
The concentrations of SEQ ID NO:1 (and related n+1, n−1 to n−15 oligonucleotide metabolites) in the following rat and monkey tissues were measured by a validated CE method (Southwest Bio-Labs, Inc.): kidney, liver, spleen, heart, lung, bone marrow (rat), lymph nodes (monkey) and brain tissues. The tissue samples were collected from the designated animals as described in the 21-day toxicity studies: rats, administered bolus intravenous injections of SEQ ID NO:1 every other day at 2, 10, or 50 mg/kg; and monkeys administered SEQ ID NO:1 by continuous intravenous infusion at 2, 10, or 50 mg/kg/day.

[3] = system: human tumour cell xenografts; assay: Human tumour cell xenografts in mice, compiled tumour weights (FIG. 29); format: in vivo, human cells in mice
Experimental: CD-1 athymic female nude mice, BALB/c nu/nu nude mice, SCID, and SCID beige mice were purchased from Charles River Laboratories (Montreal, Canada) and experiments were typically initiated when the mice were 6-7 weeks old. Human tumour cells were grown in appropriate growth medium and 3×10^6−1×10^7 cells suspended in 100 μl of PBS were subcutaneously injected into the right flank of the animals with a 23 gauge needle (cell number indicated in the figure legends). Each experimental group typically contained 10 mice. After the size of tumour reached a mean tumour volume of 50-100 mm^3, treatment was initiated. Antisense oligonucleotides (dissolved in saline) were administered by bolus infusion into the tail vein of animal every other day at the indicated dose. Anti-tumour activity was estimated by the measurement of tumour volume with a calliper at two-three day intervals. Tumour volume was calculated by a formula L×W×H/2, where L indicates length, W indicates width and H indicates height. Within 24 hours after the last treatment, the animals were sacrificed and tumour and body weights were measured.
Each data point represents tumour weight and standard error. […]

[4] = 2 mg/kg/day continuous i.v. infusion, Necropsy Day 22
[5] = 10 mg/kg/day continuous i.v. infusion, Necropsy Day 22
[6] = 50 mg/kg/day continuous i.v. infusion, Necropsy Day 22
[7] = 50 mg/kg/day continuous i.v. infusion, Necropsy Day 43

5′-GGCTAAATCGCTCCACCAAG-3′ (all phosphorothioate, sugars by position and methylation of C not given here) [SEQ ID NO: 1, fully phosphorothioated antisense oligonucleotide that hybridizes to the coding region of R2 mRNA]
Inhibition of tumour weight [1]: ~65%
Rank order of tissue concentrations [2]: kidney>liver>bone marrow>spleen>heart>lung
Mean Concentration SEQ ID NO: 1, Brain [2, 4]: BDL (below detectable limits (1 μg/g rat; 0.2 μg/g monkey))
Mean Concentration SEQ ID NO: 1, Heart [2, 4]: BDL (below detectable limits (1 μg/g rat; 0.2 μg/g monkey))
Mean Concentration SEQ ID NO: 1, Kidney [2, 4]: 176.2 µg/g
Mean Concentration SEQ ID NO: 1, Liver [2, 4]: 137.8 µg/g
Mean Concentration SEQ ID NO: 1, Lung [2, 4]: BDL (below detectable limits (1 μg/g rat; 0.2 μg/g monkey))
Mean Concentration SEQ ID NO: 1, Lymph node [2, 4]: 2.2 µg/g
Mean Concentration SEQ ID NO: 1, Spleen [2, 4]: 17.8 µg/g
Mean Concentration total metabolites (n + 1 through n − 13), Brain [2, 4]: BDL (below detectable limits (1 μg/g rat; 0.2 μg/g monkey))
Mean Concentration total metabolites (n + 1 through n − 13), Heart [2, 4]: BDL (below detectable limits (1 μg/g rat; 0.2 μg/g monkey))
Mean Concentration total metabolites (n + 1 through n − 13), Kidney [2, 4]: 605.8 µg/g
Mean Concentration total metabolites (n + 1 through n − 13), Liver [2, 4]: 425.7 µg/g
Mean Concentration total metabolites (n + 1 through n − 13), Lung [2, 4]: BDL (below detectable limits (1 μg/g rat; 0.2 μg/g monkey))
Mean Concentration total metabolites (n + 1 through n − 13), Lymph node [2, 4]: 21.0 µg/g
Mean Concentration total metabolites (n + 1 through n − 13), Spleen [2, 4]: 71.4 µg/g
Mean Concentration SEQ ID NO: 1, Brain [2, 5]: BDL (below detectable limits (1 μg/g rat; 0.2 μg/g monkey))
Mean Concentration SEQ ID NO: 1, Heart [2, 5]: 1.9 µg/g
Mean Concentration SEQ ID NO: 1, Kidney [2, 5]: 246.5 µg/g
Mean Concentration SEQ ID NO: 1, Liver [2, 5]: 129.0 µg/g
Mean Concentration SEQ ID NO: 1, Lung [2, 5]: 1.6 µg/g
Mean Concentration SEQ ID NO: 1, Lymph node [2, 5]: 13.1 µg/g
Mean Concentration SEQ ID NO: 1, Spleen [2, 5]: 82.1 µg/g
Mean Concentration total metabolites (n + 1 through n − 13), Brain [2, 5]: BDL (below detectable limits (1 μg/g rat; 0.2 μg/g monkey))
Mean Concentration total metabolites (n + 1 through n − 13), Heart [2, 5]: 4.6 µg/g
Mean Concentration total metabolites (n + 1 through n − 13), Kidney [2, 5]: 886.1 µg/g
Mean Concentration total metabolites (n + 1 through n − 13), Liver [2, 5]: 486.2 µg/g
Mean Concentration total metabolites (n + 1 through n − 13), Lung [2, 5]: 4.2 µg/g
Mean Concentration total metabolites (n + 1 through n − 13), Lymph node [2, 5]: 86.2 µg/g
Mean Concentration total metabolites (n + 1 through n − 13), Spleen [2, 5]: 198.3 µg/g
Mean Concentration SEQ ID NO: 1, Brain [2, 6]: BDL (below detectable limits (1 μg/g rat; 0.2 μg/g monkey))
Mean Concentration SEQ ID NO: 1, Heart [2, 6]: 46.3 µg/g
Mean Concentration SEQ ID NO: 1, Kidney [2, 6]: 1425.2 µg/g
Mean Concentration SEQ ID NO: 1, Liver [2, 6]: 316.6 µg/g
Mean Concentration SEQ ID NO: 1, Lung [2, 6]: 39.2 µg/g
Mean Concentration SEQ ID NO: 1, Lymph node [2, 6]: 253.5 µg/g
Mean Concentration SEQ ID NO: 1, Spleen [2, 6]: 260.6 µg/g
Mean Concentration total metabolites (n + 1 through n − 13), Brain [2, 6]: BDL (below detectable limits (1 μg/g rat; 0.2 μg/g monkey))
Mean Concentration total metabolites (n + 1 through n − 13), Heart [2, 6]: 113.8 µg/g
Mean Concentration total metabolites (n + 1 through n − 13), Kidney [2, 6]: 3230.8 µg/g
Mean Concentration total metabolites (n + 1 through n − 13), Liver [2, 6]: 806.6 µg/g
Mean Concentration total metabolites (n + 1 through n − 13), Lung [2, 6]: 124.0 µg/g
Mean Concentration total metabolites (n + 1 through n − 13), Lymph node [2, 6]: 801.2 µg/g
Mean Concentration total metabolites (n + 1 through n − 13), Spleen [2, 6]: 1097 µg/g
Mean Concentration SEQ ID NO: 1, Brain [2, 7]: BDL (below detectable limits (1 μg/g rat; 0.2 μg/g monkey))
Mean Concentration SEQ ID NO: 1, Heart [2, 7]: 0.5 µg/g
Mean Concentration SEQ ID NO: 1, Kidney [2, 7]: 1.6 µg/g
Mean Concentration SEQ ID NO: 1, Liver [2, 7]: 0.9 µg/g
Mean Concentration SEQ ID NO: 1, Lung [2, 7]: BDL (below detectable limits (1 μg/g rat; 0.2 μg/g monkey))
Mean Concentration SEQ ID NO: 1, Lymph node [2, 7]: 59.9 µg/g
Mean Concentration SEQ ID NO: 1, Spleen [2, 7]: 57.2 µg/g
Mean Concentration total metabolites (n + 1 through n − 13), Brain [2, 7]: BDL (below detectable limits (1 μg/g rat; 0.2 μg/g monkey))
Mean Concentration total metabolites (n + 1 through n − 13), Heart [2, 7]: 3.5 µg/g
Mean Concentration total metabolites (n + 1 through n − 13), Kidney [2, 7]: 10.5 µg/g
Mean Concentration total metabolites (n + 1 through n − 13), Liver [2, 7]: 2.3 µg/g
Mean Concentration total metabolites (n + 1 through n − 13), Lung [2, 7]: BDL (below detectable limits (1 μg/g rat; 0.2 μg/g monkey))
Mean Concentration total metabolites (n + 1 through n − 13), Lymph node [2, 7]: 371.3 µg/g
Mean Concentration total metabolites (n + 1 through n − 13), Spleen [2, 7]: 367.8 µg/g
Concentrations in the brain ([2]; lower limit for detection 0.2 μg/g): below the limits of detection
Effect on tumour growth and endpoint weight ([3]; all cancer cell lines tested): significant decrease in tumour growth (volume over time) and endpoint weight
p, difference in tumour weight between control and oligonucleotide treated groups ([3]; range of human tumour xenografts, 2.5 mg/kg to 10 mg/kg i.v. every second day, all cases): < 0.05
